From patent US20110212165A1, “PHARMACEUTICAL COMPOSITIONS OF THE ISOLATED D-ENANTIOMER OF THE QUINAZOLINONE DERIVATIVE HALOFUGINONE” (priority 2005, published 2011)
“Also recorded” adds a separate entry of the source.

How the values were obtained:
[1] = system: hAoSMC, HUVEC, Detroit 551, 5637, HT1080 and MDA-MB-435S cells; experiment: Cell proliferation assay (methylene blue staining) of cultured, actively growing cells; type: cell-based, Human; details: all tested cells (hAoSMC, HUVEC, Detroit 551, 5637, HT1080, MDA-MB-435S); increasing concentrations, 72-96 hours after seeding
Description: The present study sought to compare the effect of each of the trans-halofuginone enantiomers to the racemic mixture on proliferation of cultured, actively growing cells. Human aortic smooth muscle cells (hAoSMC) and Human Umbilical Vein Endothelial Cells (HUVEC) were purchased from Clonetics and grown in Clonetics suitable growth media. Human skin fibroblasts (Detroit 551) and human fibrosarcoma (HT1080) cell lines were purchased from the American Type Culture Collection (ATCC) and grown in MEM supplemented with 10% FCS, 1 mM Sodium pyruvate, 2 mM L-glutamine and 0.2% antibiotic solution (Biological industries, Beit-Haemek, Israel). The human bladder carcinoma (5637) and human breast carcinoma (MDA-MB-435S) cell lines were purchased from the ATCC and grown in DMEM supplemented with 10% FCS and 0.2% antibiotic solution (Biological industries, Beit-Haemek, Israel). Cells were grown in 37° C. and 5% CO2. Cells were seeded in 96-well plates. Twenty-four hours later, increasing concentrations of tested compounds were added to the wells. When the cultures reached sub confluence (72-96 hours after seeding) the cells were fixed with 2.5% glutaraldehyde, washed three times with distilled water, followed by one wash with 0.1 M Boric buffer (pH 8.5). […] The optical density at 620 nm was determined using a micro plate spectrophotometer.

[2] = system: collagen type I synthesis of skin fibroblasts (Detroit 551); experiment: Collagen type I synthesis of skin fibroblasts (CICP, Prolagen-C ELISA); type: cell-based, Human; details: for effect on collagen type I synthesis of skin fibroblasts: Detroit 551, 75 μM ascorbic acid, 48 h, increasing concentrations
Method: Skin fibroblasts (Detroit 551) were seeded in a 96-well plate (3000 cells/well). Twenty-four hours later the cells were incubated for additional 48 h with 75 μM ascorbic acid and increasing concentrations of the tested compounds (induction medium was exchanged after 24 h). Cell medium was collected and the Prolagen-C ELISA kit of “METRA” was used for detection of collagen type I C′ propeptide (CICP) concentration.

coccidiosis = details: versus racemic compound; cited from earlier work

Compound | effect on cell proliferation [1] | effect on collagen type I synthesis of skin fibroblasts ([2]; listed as D-enantiomer of halofuginone) | activity in suppressing collagen type I synthesis relative to the racemic mixture ([2]; Detroit 551, versus racemic mixture of halofuginone, listed as D-enantiomer of halofuginone) | coccidiostatic activity relative to the racemic compound (coccidiosis) | effect on collagen type I synthesis of skin fibroblasts [2]
O=C(CC1NCCCC1O)Cn1cnc2cc(Br)c(Cl)cc2c1=O (single isomer, unassigned; enantiomer 7) [D-enantiomer, 7-bromo-6-chloro-3-[3-(3-hydroxy-2-piperidinyl)-2-oxopropyl]-4(3H)-quinazolinone] | suppressed proliferation of all the tested cells in a dose dependent manner | suppressed collagen type I synthesis of skin fibroblasts in a dose dependent manner | about two | three | –
O=C(CC1NCCCC1O)Cn1cnc2cc(Br)c(Cl)cc2c1=O (single isomer, unassigned; enantiomer 7) [L-enantiomer, 7-bromo-6-chloro-3-[3-(3-hydroxy-2-piperidinyl)-2-oxopropyl]-4(3H)-quinazolinone] | no effect; also recorded: virtually inactive | – | – | – | no effect; also recorded: virtually inactive
